Common to all, as to assay type: in vivo
Series [1] has as its system SSMC7721 human liver cancer cells. Put plainly: Nude mice tumor transplanted from human SSMC7721 liver cancer (Example 53). The note with it: 40 mg/kg orally once a day for 24 days. As to the method: Female nu/nu mice of 18∼20g were fed by normal diet for 3 days. Then the cultured SSMC7721 human liver cancer cells were implanted into the armpit of 50 mice. […] One group was treated with vehicle. One group was treated with Sutent, the positive control drug. […] Each group was dosed orally once a day for 24 days. […] The tumor growth inhibition of each group was calculated using the following formula: {[([…])} × 100%. [formula] The experimental results are shown in Table 7 and Figure 3.

Series [2] deals with human HCT-8 colon cancer. Kind of series: Nude mice tumor transplanted from human HCT-8 colon cancer (Example 52). The settings on record: 40 mg/kg orally once a day. As to the method: Female nu/nu mice of 18∼20g were fed by normal diet for 3 days. Then the cultured HCT-8 human colon cancer cells were implanted into the armpit of 50 mice. […] Each group had 8 mice. One group was treated with vehicle. One group was treated with Sutent, the positive control drug. […] Each group was dosed orally once a day for 24 days. Tumor volumes along with body weights were recorded twice per week. On the next day after 20 doses, the mice were killed, and tumors were weighed. The tumor growth inhibition of each group was calculated using the following formula: {[([…])} × 100%. [formula] The experimental results are shown in Table 6 and Figure 2.

For series [3], the system named is human HCT-8 colon cancer. Put plainly: Nude mice tumor transplanted from human HCT-8 colon cancer (Example 54). The note with it: 40 mg/kg orally once a day for 20 days. As to the method:
(§1) Female nu/nu mice of 18∼20g were fed by normal diet for 3 days. Then the cultured HCT-8 human colon cancer cells were implanted into the armpit of 50 mice. […] Each group had 8 mice. One group was treated with vehicle. One group was treated with Sutent, the positive control drug. Two groups were treated with compound 33 at different concentrations. The other two groups were treated with compound 34 at different concentrations. Each group was dosed orally once a day for 20 days. […] The tumor growth inhibition of each group was calculated using the following formula: {[(the average tumor weight of control group)-(the average tumor weight of test group)]/(the average tumor weight of control group)} × 100%. [formula] The experimental results are shown in Table 8 and Figure 4.

Series [4] concerns human SSMC7721 liver cancer. Kind of series: Nude mice tumor transplanted from human SSMC7721 liver cancer (Example 56). The note with it: 40 mg/kg orally once a day for 30 days. The protocol: as §1, with “cultured SSMC7721” for “cultured HCT-8”, “human liver” for “human colon”, “compound 37” for “compound 34”, “for 30” for “for 20”, “Table 10” for “Table 8”, “Figure 6. Table10” for “Figure 4.”

Another series concerns human A549 lung cancer. Put plainly: Nude mice tumor transplanted from human A549 lung cancer (Example 51). The note with it: 40 mg/kg orally once a day for 24 days. As to the method:
Then the cultured A549 human lung cancer cells were implanted into the armpit of 50 mice. […] Each group had 8 mice. One group was treated with vehicle. One group was treated with Sutent, the positive control drug. […] Each group was dosed orally once a day for 24 days. Tumor volumes along with body weights were recorded twice per week. On the next day after 24 doses, the mice were killed, and tumors were weighed. The tumor growth inhibition of each group was calculated using the following formula: {[(the average tumor weight of control group)-(the average tumor weight of test group)]/(the average tumor weight of control group)}×100%.

`CCN(CC)CCNC(=O)c1c(C)[nH]c(/C=C2\C(=O)Nc3ccc(F)cc32)c1C` [Sutent, sunitinib, reference compound]: the “Tumor weight” value is 1.00 ± 0.68 g in series [1]; 0.23 ± 0.07 g in the series on human HCT-8 colon cancer [2] (killed after 20 doses); 0.44 ± 0.15 g in the series with human HCT-8 colon cancer [3]; 0.88 ± 0.39 g in series [4]; 2.06 ± 0.71 g in the series with human A549 lung cancer. The “Body weight (g) end” value came out at 24.8 ± 1.2 g in series [1] (end); 22.4 ± 1.1 g in the series on human HCT-8 colon cancer [2] (end); 22.1 ± 1.5 g with human HCT-8 colon cancer [3] (end); 24.0 ± 0.6 g in series [4] (end); 24.4 ± 2.3 g with human A549 lung cancer (end). For the same compound, the “Body weight (g) start” value is 21.0 ± 0.8 g in series [1] (start); 21.5 ± 0.7 g in the series with human HCT-8 colon cancer [2] (start); 20.6 ± 1.2 g with human HCT-8 colon cancer [3] (start); 21.2 ± 1.1 g in series [4] (start); 20.3 ± 1.4 g in the series on human A549 lung cancer (start). The “TGI (%)” value is given as 70.3% in series [1] (tumor growth inhibition); 95.3% in the series with human HCT-8 colon cancer [2] (tumor growth inhibition); 89.1% with human HCT-8 colon cancer [3] (tumor growth inhibition); 61.1% in series [4] (tumor growth inhibition); 50.9% in the series on human A549 lung cancer (tumor growth inhibition).

The record behind these values is patent EP2439195B1, “NAPHTHALENE CARBOXAMIDE DERIVATIVES AS INHIBITORS OF PROTEIN KINASE AND HISTONE DEACETYLASE, PREPARATION METHODS AND USES THEREOF” (Shenzhen Chipscreen Biosciences, Ltd., priority 2009, dated 2010).
